Patent publication US20230226198A1, “Artemisinin Derivatives” (DA ZEN THERANOSTICS, INC., priority 2019, published 2023)

Tests used:
Type in all cases: cell-based
[1] = tested on: H446 cells; experiment: MTT cell viability / IC50 assay, H446; settings: Homo sapiens, NCI-H446, 48 h
Protocol: (§1) Cell culture: In the following examples, unless otherwise specified, all cell lines are purchased from American Type Culture Collection and cultured in American Type Culture Collection (ATCC)-recommended media, with fetal bovine serum (FBS) to a final concentration of 10% and 1× penicillin/streptomycin at 37° C. with 5% CO2 in a cell culture incubator, unless otherwise specified. Unless otherwise specified, culture is 2D. Where culture is 3D, low attachment plates are used, with the same media. C4-2B (ATCC® CRL-3315™, human prostate cancer cells of epithelial morphology) parental cell line and drug-resistant cells derived therefrom) are cultured in RPMI-1640 with 10% FBS. MDVR cells (an Enzalutamide-resistant variety of C4-2B prostate cancer cells formed as described below) are cultured as indicated for the parental C4-2B cells. Caki-1 cells (human clear cell renal cell carcinoma cells) are cultured in ATCC-formulated McCoy's 5a Medium Modified (ATCC Catalog No. 30-2007) with 10% FBS. […]
(§2) Each of the cell lines is treated either with a THAD (e.g. DZ-DHA-ether, MI-148-bis-DHA), or for comparison, with the DHA mono-ester “DZ-DHA”; alternatively/additionally, DZ1 and/or unconjugated DHA may serve as comparants. […] The absorbance density of the supernatant is read on a 96-well microplate reader at wavelength 595 nm. […]

[2] = tested on: 22Rv1 cells; experiment: MTT cell viability / IC50 assay, 22Rv1; settings: Homo sapiens, 22Rv1, 48 h
Protocol: as §1, §2

[3] = tested on: Abi-R cells (Abiraterone acetate resistant C4-2B cells); experiment: MTT cell viability / IC50 assay, Abi-R; settings: Homo sapiens, 48 h
Protocol: as §1, §2

Row | SMILES | IC50 [1] [µM] | IC50 [2] [µM] | IC50 [3] [µM]
1 | C[C@@H]1CC[C@H]2[C@@H](C)C(OC(=O)CCCCCN3/C(=C/C=C4\CCCC(/C=C/C5=[N+](CCCCS(=O)(=O)[O-])c6ccccc6C5(C)C)=C4Cl)C(C)(C)c4ccccc43)O[C@@H]3OC4(C)CC[C@@H]1[C@]32OO4 (stereo in doubt) [DZ3a] | 12.6 | 0.9 | 17.1
2 | C[C@H]1[C@@H](O)O[C@@H]2O[C@@]3(C)CC[C@H]4[C@H](C)CC[C@@H]1[C@@]24OO3 [DHA, dihydroartemisinin] | 287 | 9.4 | 669
